Assay results as given in a melting point compilation (Tetko et al.; mined from patent text by program, amines drawn as free bases though some values may be those of a salt).

Row | SMILES | melting point
1 | CCN(c1ccc(C)c2cc(-c3ncc(C(C)O)s3)[nH]c12)S(=O)(=O)c1cccs1 (stereo not drawn) | 152 to 153 °C
2 | Cc1ccc(Cn2cnc3c(-c4ccco4)ncnc32)cc1 | 166 to 167 °C
3 | Oc1nn(-c2ccccc2)nc1Cl | 135 to 140 °C
4 | OCC1OC(n2cnc3c(NCC(c4ccc(Cl)cc4)c4ccc(Cl)cc4)ncnc32)C(O)C1O (stereo not drawn) | 95 to 120 °C
5 | NS(=O)(=O)c1ccc(NC(=O)Nc2cccc([N+](=O)[O-])c2)cc1 | 246 to 248 °C
6 | CC1Cc2c(N3CCCC(O)C3)c(F)cc3c(=O)c(C(=O)O)cn1c23 (stereo not drawn) | 251 to 253 °C
7 | O=[N+]([O-])c1ccc2sc3ccc(F)cc3c2c1 | 200 to 202 °C
8 | COc1cc(OC)c(-c2cccs2)cc1C#CC(=O)c1ccc(C(=O)O)cc1 | 220 °C
9 | N#Cc1ccccc1N1CCN(CCC=C2c3ccccc3CCc3ccccc32)CC1 | 112 to 114 °C
10 | CN1CCC(c2c[nH]c3ccc(C4CN=CS4)cc23)CC1 (stereo not drawn) | 158 to 160 °C
11 | CN1CC=C(c2cc3cc(Cl)ccc3o2)CC1 | 108 to 118 °C
12 | CS(=O)(=O)c1ccc(-c2cnn(CC(F)(F)F)c(=O)c2Cc2cccc(F)c2)cc1 | 58 to 62 °C
13 | Cc1cccc(Nc2cc(Nc3ccc(OCCCN(C)C)cc3)ncn2)c1 | 204 to 207 °C
14 | CCSc1nc(-c2ccccc2)cc2nnc(C)n12 | 210 to 212 °C
15 | CCCCNC(=O)Nc1sc2c(c1C#N)CCCC2 | 170 to 171 °C
16 | Nc1nc(Cl)cc(-c2ccco2)n1 | 133 to 140 °C
17 | Cn1ncc([N+](=O)[O-])c1CBr | 71 to 73 °C
18 | O=C1c2ccccc2C(=O)N1CCCC1c2ccccc2C=Cc2ccccc21 | 126 to 132 °C
19 | CC1(c2ccc(O)cc2)C(=O)Nc2cc(Cl)cc(Cl)c2C1=O (stereo not drawn) | 222 to 223 °C

Row | SMILES | melting point
20 | Cc1c(C)c2c(c(C)c1NC(=O)CC(C)(C)C)C(C)(c1ccc(C(C)C)cc1)CO2 (stereo not drawn) | 194 to 195 °C
21 | CC(C)(C)c1cc(CSCCC(=O)NCCCCCCNC(=O)CCSCc2cc(C(C)(C)C)c(O)c(C(C)(C)C)c2)cc(C(C)(C)C)c1O | 126 to 130 °C
22 | NC(=O)CC(O)(Cn1cncn1)C(F)(F)C(F)(F)C(F)(F)C(F)(F)F (stereo not drawn) | 145 to 146 °C
23 | COC1(c2cccc(Sc3cc(C)c4c(ccc(=O)n4C)c3)c2)CCOCC1 | 101 to 102 °C
24 | Cc1ccc(S(=O)(=O)N[C@@H](C)C(=O)Oc2csc(-c3ccccc3)n2)cc1 | 110 to 112 °C
25 | COC(=O)c1c[nH]c(Sc2ccccc2C)c1 | 114 to 119 °C
26 | O=C1[C@H]2CCC[C@H]2N(C(=O)CBr)c2ccc(Cl)cc2N1Cc1ccccc1 (relative stereo) | 163 to 164 °C
27 | O=C(CN1CS(=O)CC1=O)N1CCN(C(c2ccccc2)c2ccccc2)CC1 (stereo not drawn) | 225 to 226 °C
28 | CC(=O)SC1C2=C(CCCC2)C(=O)N1c1ccc(Br)cc1F (stereo not drawn) | 117 to 118 °C
29 | CCOC(=O)CC1CCc2cncn2C1c1ccc(C#N)cc1 (stereo not drawn) | 126 to 127 °C
30 | COc1ccc(Nc2nc(C)ccc2S(=O)(=O)c2ccc(OCc3ccccc3OC)cc2)c(C)c1 | 70 to 72 °C
31 | O=S(=O)(Nc1ccc(Cl)cc1I)c1ccc2ncsc2c1 | 162 °C
32 | CC[C@@H](c1ccccc1)N(Cc1ccc(C(=O)O)cc1)S(=O)(=O)c1ccc(Cl)cc1 | 154 to 156 °C
33 | COc1ccc(S(=O)(=O)Nc2ccccc2NC(=S)c2ccc(F)cc2)cc1 | 155 to 156 °C
34 | CCCCC(=O)Nc1ccc([N+](=O)[O-])cc1 | 107 to 116 °C
35 | Cn1cnnc1C(OCCO)(c1ccc(F)cc1)c1cc2c3c(c1)c(-c1cccc(Cl)c1)cc(=O)n3CC2 (stereo not drawn) | 138 °C
36 | CCOC(=O)C1=C(C)NC(CSC(=O)c2ccc(N)cc2)=C(C(=O)OCC)C1c1cccc([N+](=O)[O-])c1 (stereo not drawn) | 78 to 80 °C
37 | Oc1ccc2c(-c3ccccn3)noc2c1Cl | 209 to 211 °C
38 | CC1(Br)C(Br)=CC(O)=C(Br)C1Br (stereo not drawn) | 195 to 196 °C
